Measured values as given in ChEMBL document CHEMBL1144130, “11-Deoxyfistularin-3, a new cytotoxic metabolite from the caribbean sponge Aplysina fistularis insularis” (1999).
In brackets after ≈: the same amount, converted by molar mass.

Assays:
Format in all cases: functional
[1] = Cytotoxicity against human XL17 cells after 96 hrs by MTT assay; settings: XL17, 96 h, read-out: LD50 (the source's name)
[2] = system: RD; experiment: Cytotoxicity against human RD cells after 96 hrs by MTT assay; settings: read-out: LD50 (the source's name)
[3] = system: HEp-2; experiment: Cytotoxicity against human Hep2 cells after 96 hrs by MTT assay; settings: HEp-2, 96 h, read-out: LD50 (the source's name)
[4] = system: MCF7; experiment: Cytotoxicity against human MCF7 cells after 96 hrs by MTT assay; settings: MCF7, 96 h, read-out: LD50 (the source's name)
[5] = system: HeLa; experiment: Cytotoxicity against human HeLa cells after 96 hrs by MTT assay; settings: read-out: LD50 (the source's name)
[6] = system: LoVo; experiment: Cytotoxicity against human LoVo cells after 96 hrs by MTT assay; settings: read-out: LD50 (the source's name)

## COC1=C(Br)[C@H](O)[C@@]2(C=C1Br)CC(C(=O)NCCCOc1c(Br)cc(C(O)CNC(=O)C3=NO[C@]4(C=C(Br)C(OC)=C(Br)[C@@H]4O)C3)cc1Br)=NO2 (stereo partly specified)
[1]
  CC50: 17 µg/mL (≈ 15.5 µM)
[2]
  CC50: 17 µg/mL (≈ 15.5 µM)
[3]
  CC50: 17 µg/mL (≈ 15.5 µM)
[4]
  CC50: > 50 µg/mL
[5]
  CC50: 17 µg/mL (≈ 15.5 µM)
[6]
  CC50: 17 µg/mL (≈ 15.5 µM)
